Data as given in patent publication US20180251431A1 (VERTEX PHARMACEUTICALS INCORPORATED, priority 2016, published 2018).

Each compound was assayed on HEK293 cells (assay: HEK293 VLCFA-LPC IC50 determination (13C-labeled C26:0 LPC by UHPLC/MS)). Details: Homo sapiens, HEK293, 48 h, average of one or more replicates; 13C-labeled C26:0 LPC, 48 hours; read-out: Average HEK293 IC50.
Format: cell-based, human
Method in brief: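 Suspension HEK293 cells (final 0.5 million/mL after mixing with equal volume) incubated 48 hours with compound plus 13C-acetate (1.0 mg/mL in added media), shaking at 37° C. Lipids extracted with hexane/isopropanol or methanol, C13:0 LPC standard. UHPLC/MS of 13C-labeled C26:0 LPC (638.500/104.100 m/z); IC50 by four-parameter fit.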
`O=C(Nc1ccn(-c2ncc(F)cc2F)n1)C1(c2ccccc2F)CC1` [Compound 391, N-(1-(3,5-difluoropyridin-2-yl)-1H-pyrazol-3-yl)-1-(2-fluorophenyl)cyclopropane-1-carboxamide] was tested, and the IC50 was 190 nM. `COc1ncc(-n2ccc(NC(=O)C3(c4ccccc4F)CC3)n2)cc1Cl` [Compound 378, N-(1-(5-chloro-6-methoxypyridin-3-yl)-1H-pyrazol-3-yl)-1-(2-fluorophenyl)cyclopropane-1-carboxamide] was tested, and the IC50 was 120 nM. In the case of `COc1cncc(OC)c1-n1ccc(NC(=O)C2(c3ccccc3F)CC2)n1` [Compound 347, N-[1-(3,5-dimethoxy-4-pyridyl)pyrazol-3-yl]-1-(2-fluorophenyl)cyclopropanecarboxamide], the IC50 is reported as > 5000 nM. In the case of `COc1nccc(-n2ccc(NC(=O)C3(c4ccccc4F)CC3)n2)c1C` [Compound 340, 1-(2-fluorophenyl)-N-[1-(2-methoxy-3-methyl-4-pyridyl)pyrazol-3-yl]cyclopropanecarboxamide], the IC50 is reported as > 5000 nM.

Same assay, conditions: Homo sapiens, HEK293, HEK293 cells; average of one or more replicates; read-out: Average HEK293 IC50
`O=C(Nc1ccn(-c2ccnc(F)c2)n1)C1(c2cccc(F)c2)CC1` [Compound 254, 1-(3-fluorophenyl)-N-[1-(2-fluoro-4-pyridyl)pyrazol-3-yl]cyclopropanecarboxamide] showed an IC50 of 190 nM. Compound `O=C(Cc1ccccc1F)Nc1ccn(-c2cncc(F)c2)n1` [Compound 204, 2-(2-fluorophenyl)-N-[1-(5-fluoro-3-pyridyl)pyrazol-3-yl]acetamide] has an IC50 of 97 nM. With `Cc1nc(C)c(-n2ccc(NC(=O)C3(c4ccccc4F)CC3)n2)s1` [Compound 413, N-[1-(2,4-dimethylthiazol-5-yl)pyrazol-3-yl]-1-(2-fluorophenyl)cyclopropanecarboxamide] the IC50 was > 5000 nM. In the case of `COc1cccc(-n2ccc(NC(=O)C3(c4ccccc4F)CC3)n2)n1` [Compound 502, 1-(2-fluorophenyl)-N-[1-(6-methoxy-2-pyridyl)pyrazol-3-yl]cyclopropanecarboxamide], the IC50 is reported as > 5000 nM. Compound `O=C(Nc1ccn(-c2ccc(F)cc2)n1)C1(c2cccs2)CC1` [Compound 481, N-[1-(4-fluorophenyl)pyrazol-3-yl]-1-(2-thienyl)cyclopropanecarboxamide] has an IC50 of 160 nM. `CC(C)(C(=O)Nc1ccn(-c2ccccc2)n1)c1ccccn1` [Compound 476, 2-methyl-N-(1-phenylpyrazol-3-yl)-2-(2-pyridyl)propanamide] was tested, and the IC50 was 530 nM. `O=C(Nc1ccn(-c2cccc(Cl)c2)n1)C1(c2ccccc2F)CC1` [Compound 128, N-[1-(3-chlorophenyl)pyrazol-3-yl]-1-(2-fluorophenyl)cyclopropanecarboxamide] gave an IC50 of 230 nM. For `Cc1cnn(CC(=O)Nc2ccn(-c3ccccc3)n2)c1` [Compound 290, 2-(4-methylpyrazol-1-yl)-N-(1-phenylpyrazol-3-yl)acetamide], the IC50 was > 5000 nM. `O=C(Nc1ccn(-c2ccc(C(F)(F)F)cc2)n1)C1(c2ncccc2F)CC1` [Compound 457, 1-(3-fluoro-2-pyridyl)-N-[1-[4-(trifluoromethyl)phenyl]pyrazol-3-yl]cyclopropanecarboxamide] was tested, and the IC50 was > 5000 nM. `CCC1(C)CC1(C(=O)Nc1ccn(-c2ccnc(F)c2)n1)c1ccccc1` (stereo not shown) [Compound 168, 2-ethyl-N-[1-(2-fluoro-4-pyridyl)pyrazol-3-yl]-2-methyl-1-phenyl-cyclopropanecarboxamide] was tested, and the IC50 was 86 nM. `O=C(Nc1ccn(-c2ccnc(F)c2)n1)C1(c2cccc(F)c2F)CC1` [Compound 268, 1-(2,3-difluorophenyl)-N-[1-(2-fluoro-4-pyridyl)pyrazol-3-yl]cyclopropanecarboxamide] was tested, and the IC50 was 140 nM. Compound `Cc1cccc(C2(C(=O)Nc3ccn(-c4ccccc4)n3)CC2)c1` [Compound 32, 1-(m-tolyl)-N-(1-phenylpyrazol-3-yl)cyclopropanecarboxamide] has an IC50 of 650 nM. `O=C(Cc1cc(F)cc(F)c1)Nc1ccn(-c2ccccc2)n1` [Compound 58, 2-(3,5-difluorophenyl)-N-(1-phenylpyrazol-3-yl)acetamide] was tested, and the IC50 was > 5000 nM. Work on `O=C(Nc1ccn(-c2cc(F)ccc2F)n1)C1(c2ccccc2)CC1` [Compound 163, N-[1-(2,5-difluorophenyl)pyrazol-3-yl]-1-phenyl-cyclopropanecarboxamide] yielded an IC50 of 4500 nM. In the case of `O=C(Cc1ccccc1F)Nc1ccn(-c2ccccn2)n1` [Compound 211, 2-(2-fluorophenyl)-N-[1-(2-pyridyl)pyrazol-3-yl]acetamide], the IC50 is reported as 1700 nM. `O=C(Nc1ccn(-c2cccc(F)c2)n1)C1(c2ccccc2F)CC1` [Compound 124, 1-(2-fluorophenyl)-N-[1-(3-fluorophenyl)pyrazol-3-yl]cyclopropanecarboxamide] showed an IC50 of 41 nM. With `Cc1ccncc1-n1ccc(NC(=O)C2(c3ccccc3F)CC2)n1` [Compound 472, 1-(2-fluorophenyl)-N-[1-(4-methyl-3-pyridyl)pyrazol-3-yl]cyclopropanecarboxamide] the IC50 was 56 nM. `O=C(Nc1ccn(-c2ccncc2)n1)C1(c2ncccc2F)CC1` [Compound 422, 1-(3-fluoro-2-pyridyl)-N-[1-(4-pyridyl)pyrazol-3-yl]cyclopropanecarboxamide] was tested, and the IC50 was 200 nM. `O=C(Nc1ccn(-c2ncccc2F)n1)C1(c2ncccc2F)CC1` [Compound 460, 1-(3-fluoro-2-pyridyl)-N-[1-(3-fluoro-2-pyridyl)pyrazol-3-yl]cyclopropanecarboxamide] was tested, and the IC50 was > 2000 nM. In the case of `O=C(Cc1ccccc1)Nc1ccn(-c2cc(F)ncc2F)n1` [Compound 114, N-[1-(2,5-difluoro-4-pyridyl)pyrazol-3-yl]-2-phenyl-acetamide], the IC50 is reported as 1200 nM. `COc1ncc(-n2ccc(NC(=O)C3(c4ncccn4)CC3)n2)cc1F` [Compound 535, N-[1-(5-fluoro-6-methoxy-3-pyridyl)pyrazol-3-yl]-1-pyrimidin-2-yl-cyclopropanecarboxamide] was tested, and the IC50 was > 5000 nM. In the case of `Cc1cc(C)cc(C2(C(=O)Nc3ccn(-c4ccccc4)n3)CC2)c1` [Compound 36, 1-(3,5-dimethylphenyl)-N-(1-phenylpyrazol-3-yl)cyclopropanecarboxamide], the IC50 is reported as > 5000 nM. For `O=C(Nc1ccn(-c2cncc(OC(F)F)c2)n1)C1(c2cccs2)CC1` [Compound 484, N-[1-[5-(difluoromethoxy)-3-pyridyl]pyrazol-3-yl]-1-(2-thienyl)cyclopropanecarboxamide], the IC50 was > 5000 nM. For `O=C(Cc1ccc(Cl)c(Cl)c1)Nc1ccn(-c2ccccc2)n1` [Compound 68, 2-(3,4-dichlorophenyl)-N-(1-phenylpyrazol-3-yl)acetamide], the IC50 was > 5000 nM. `COc1ccc(CC(=O)Nc2ccn(-c3ccccc3)n2)cc1OC` [Compound 66, 2-(3,4-dimethoxylphenyl)-N-(1-phenylpyrazol-3-yl)acetamide] showed an IC50 of 2800 nM. Compound `O=C(Nc1ccn(-c2ccnc(F)c2)n1)C1(c2ccc(I)cc2)CC1` [Compound 238, N-[1-(2-fluoro-4-pyridyl)pyrazol-3-yl]-1-(4-iodophenyl)cyclopropanecarboxamide] has an IC50 of 120 nM. In the case of `O=C(Nc1ccn(-c2ccncn2)n1)C1(c2ccccc2F)CC1` [Compound 206, 1-(2-fluorophenyl)-N-(1-pyrimidin-4-ylpyrazol-3-yl)cyclopropanecarboxamide], the IC50 is reported as 34 nM. With `O=C(Cc1ccccc1)Nc1ccn(-c2cccc(C(F)(F)F)c2)n1` [Compound 157, 2-phenyl-N-[1-[3-(trifluoromethyl)phenyl]pyrazol-3-yl]acetamide] the IC50 was > 5000 nM. For `COc1cc(-n2ccc(NC(=O)C3(c4ccccc4F)CC3)n2)c(F)cn1` [Compound 467, N-[1-(5-fluoro-2-methoxy-4-pyridyl)pyrazol-3-yl]-1-(2-fluorophenyl)cyclopropanecarboxamide], the IC50 was 2700 nM. For `Cc1ccc(C)c(CC(=O)Nc2ccn(-c3ccccc3)n2)c1` [Compound 55, 2-(2,5-dimethylphenyl)-N-(1-phenylpyrazol-3-yl)acetamide], the IC50 was > 5000 nM. `O=C(Nc1ccn(-c2ccc(Cl)nc2)n1)C1(c2ccccc2)CC1` [Compound 106, N-[1-(6-chloro-3-pyridyl)pyrazol-3-yl]-1-phenyl-cyclopropanecarboxamide] showed an IC50 of 250 nM. For `N#Cc1ccc(C2(C(=O)Nc3ccn(-c4ccnc(F)c4)n3)CC2)cc1` [Compound 226, 1-(4-cyanophenyl)-N-[1-(2-fluoro-4-pyridyl)pyrazol-3-yl]cyclopropanecarboxamide], the IC50 was 110 nM. With `O=C(Nc1ccn(-c2ccccc2)n1)C1(c2cccc(F)c2F)CC1` [Compound 269, 1-(2,3-difluorophenyl)-N-(1-phenylpyrazol-3-yl)cyclopropanecarboxamide] the IC50 was 98 nM. In the case of `O=C(Nc1ccn(-c2ccccc2)n1)C1(c2ccc(Cl)cc2F)CC1` [Compound 263, 1-(4-chloro-2-fluoro-phenyl)-N-(1-phenylpyrazol-3-yl)cyclopropanecarboxamide], the IC50 is reported as > 5000 nM. For `O=C(Nc1ccn(-c2ccccc2)n1)C1(c2cc(Cl)ccc2F)CC1` [Compound 265, 1-(5-chloro-2-fluoro-phenyl)-N-(1-phenylpyrazol-3-yl)cyclopropanecarboxamide], the IC50 was 240 nM. With `COc1ncc(-n2ccc(NC(=O)C3(c4ncccc4F)CC34CC4)n2)cc1F` (stereo not shown) [Compound 525, N-[1-(5-fluoro-6-methoxy-3-pyridyl)pyrazol-3-yl]-2-(3-fluoro-2-pyridyl)spiro[2.2]pentane-2-carboxamide] the IC50 was 680 nM. In the case of `O=C(Cc1ccccc1C(F)(F)F)Nc1ccn(-c2ccccc2)n1` [Compound 52, N-(1-phenylpyrazol-3-yl)-2-[2-(trifluoromethyl)phenyl]acetamide], the IC50 is reported as 1100 nM. `O=C(Cc1ccccc1F)Nc1ccn(-c2cc(F)ccc2F)n1` [Compound 162, N-[1-(2,5-difluorophenyl)pyrazol-3-yl]-2-(2-fluorophenyl)acetamide] was tested, and the IC50 was 740 nM. With `COc1ccccc1C1(C(=O)Nc2ccn(-c3ccnc(F)c3)n2)CC1` [Compound 389, N-[1-(2-fluoro-4-pyridyl)pyrazol-3-yl]-1-(2-methoxyphenyl)cyclopropanecarboxamide] the IC50 was > 5000 nM.
